From the NIST ThermoML archive (doi:10.1021/je020138s)

Columns and labels:
[1] = excess molar enthalpy (molar enthalpy of mixing); xn = mol fraction of the nth substance listed; settings: 101 kPa, Liquid, Calvet calorimetry
[2] = xn = mol fraction of the nth substance listed; settings: 308.15 K, 101 kPa, Liquid

CCCCCCCCO [octan-1-ol] + CCCCCCCCCCCC
[1], 308.15 K
Settings | excess molar enthalpy [kcal/mol]
x1 = 0.1345 | 0.172
x1 = 0.1898 | 0.187
x1 = 0.2658 | 0.198
x1 = 0.3122 | 0.2
x1 = 0.4077 | 0.199
x1 = 0.4433 | 0.196
x1 = 0.4591 | 0.194
x1 = 0.5302 | 0.186
x1 = 0.5667 | 0.179
x1 = 0.6587 | 0.158
x1 = 0.6595 | 0.16
x1 = 0.7509 | 0.126
x1 = 0.7661 | 0.12
x1 = 0.8263 | 0.0932
x1 = 0.8566 | 0.0782
x1 = 0.8983 | 0.0574
x1 = 0.9353 | 0.0366
x1 = 0.97 | 0.017

CCCCOC(=O)CCC [butyl butanoate] + CCCCCCCCCCCC
[2]
Settings | excess molar volume [m3/mol]
x1 = 0.086 | 2.25e-07
x1 = 0.1642 | 4.085e-07
x1 = 0.2326 | 4.99e-07
x1 = 0.3151 | 5.957e-07
x1 = 0.4238 | 6.386e-07
x1 = 0.4435 | 6.409e-07
x1 = 0.5057 | 6.525e-07
x1 = 0.5458 | 6.501e-07
x1 = 0.6564 | 5.883e-07
x1 = 0.6617 | 5.83e-07
x1 = 0.6962 | 5.604e-07
x1 = 0.7365 | 5.311e-07
x1 = 0.7625 | 4.759e-07
x1 = 0.7821 | 4.581e-07
x1 = 0.8186 | 4.073e-07
x1 = 0.8623 | 3.308e-07
x1 = 0.9593 | 1.15e-07

[1], 308 K
Settings | excess molar enthalpy [kcal/mol]
x1 = 0.0894 | 0.0705
x1 = 0.1261 | 0.0937
x1 = 0.1734 | 0.123
x1 = 0.205 | 0.137
x1 = 0.2668 | 0.165
x1 = 0.3014 | 0.176
x1 = 0.326 | 0.183
x1 = 0.3509 | 0.188
x1 = 0.4179 | 0.203
x1 = 0.4544 | 0.208
x1 = 0.517 | 0.207
x1 = 0.5526 | 0.207
x1 = 0.6779 | 0.186
x1 = 0.7202 | 0.174
x1 = 0.8233 | 0.128
x1 = 0.8287 | 0.125
x1 = 0.9006 | 0.0808
x1 = 0.9307 | 0.0574
